From patent US8426588B2, “Phenylalanine derivatives” (Ajinomoto Co, Inc., priority 2000, dated 2013) come the findings set out here.

Experiment [1] concerns the target T1, integrin α4β1 (Homo sapiens, UniProt P05556+P13612).
T1 construct: cell strain Jurkat (ATCC TIB-152) of human T cells, known to express integrin α4β1; endogenous in cells; host or cells: Jurkat (ATCC TIB-152)
Nature of the experiment: VCAM antagonist activity (VCAM-1/α4β1 binding assay), Jurkat cells binding to VCAM-1. Type of experiment: cell-based. As to conditions: Jurkat human T cells binding to recombinant human VCAM-1; read-out: VCAM antagonistic activity (IC50) α4β1.

Experiment [2] addresses T2, integrin α4β7 (Homo sapiens, UniProt P13612+P26010).
T2 construct: lymphoma cell strain RPMI-8866 of human B cells, known to express integrin α4β7; endogenous in cells; host or cells: RPMI-8866
T2 sequence (P13612 34-1032): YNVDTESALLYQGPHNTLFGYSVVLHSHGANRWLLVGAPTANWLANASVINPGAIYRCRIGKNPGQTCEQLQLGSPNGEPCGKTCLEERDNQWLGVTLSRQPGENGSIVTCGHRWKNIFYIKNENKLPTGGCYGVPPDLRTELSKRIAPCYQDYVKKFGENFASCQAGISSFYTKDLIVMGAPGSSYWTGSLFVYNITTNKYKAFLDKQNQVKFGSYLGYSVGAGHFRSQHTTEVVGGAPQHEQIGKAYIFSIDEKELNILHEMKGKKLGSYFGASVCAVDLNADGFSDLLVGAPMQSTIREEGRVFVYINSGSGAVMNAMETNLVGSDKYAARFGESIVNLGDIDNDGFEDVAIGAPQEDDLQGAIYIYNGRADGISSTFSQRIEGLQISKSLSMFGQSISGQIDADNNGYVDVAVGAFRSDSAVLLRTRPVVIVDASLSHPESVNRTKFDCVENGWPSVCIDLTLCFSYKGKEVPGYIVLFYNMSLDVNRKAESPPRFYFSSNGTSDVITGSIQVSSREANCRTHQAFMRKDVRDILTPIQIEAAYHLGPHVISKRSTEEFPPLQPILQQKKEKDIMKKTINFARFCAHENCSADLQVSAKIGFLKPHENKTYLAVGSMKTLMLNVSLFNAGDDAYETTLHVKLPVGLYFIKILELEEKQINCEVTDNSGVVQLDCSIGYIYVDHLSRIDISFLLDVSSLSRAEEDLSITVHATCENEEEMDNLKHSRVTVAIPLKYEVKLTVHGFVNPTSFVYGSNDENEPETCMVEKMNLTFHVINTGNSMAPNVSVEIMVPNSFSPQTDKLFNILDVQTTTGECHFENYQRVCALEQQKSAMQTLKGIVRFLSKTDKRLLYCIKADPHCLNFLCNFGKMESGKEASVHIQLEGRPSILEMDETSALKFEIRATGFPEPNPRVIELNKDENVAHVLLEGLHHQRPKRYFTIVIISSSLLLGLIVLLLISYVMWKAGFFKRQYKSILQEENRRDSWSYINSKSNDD
T2 sequence (P26010 20-798): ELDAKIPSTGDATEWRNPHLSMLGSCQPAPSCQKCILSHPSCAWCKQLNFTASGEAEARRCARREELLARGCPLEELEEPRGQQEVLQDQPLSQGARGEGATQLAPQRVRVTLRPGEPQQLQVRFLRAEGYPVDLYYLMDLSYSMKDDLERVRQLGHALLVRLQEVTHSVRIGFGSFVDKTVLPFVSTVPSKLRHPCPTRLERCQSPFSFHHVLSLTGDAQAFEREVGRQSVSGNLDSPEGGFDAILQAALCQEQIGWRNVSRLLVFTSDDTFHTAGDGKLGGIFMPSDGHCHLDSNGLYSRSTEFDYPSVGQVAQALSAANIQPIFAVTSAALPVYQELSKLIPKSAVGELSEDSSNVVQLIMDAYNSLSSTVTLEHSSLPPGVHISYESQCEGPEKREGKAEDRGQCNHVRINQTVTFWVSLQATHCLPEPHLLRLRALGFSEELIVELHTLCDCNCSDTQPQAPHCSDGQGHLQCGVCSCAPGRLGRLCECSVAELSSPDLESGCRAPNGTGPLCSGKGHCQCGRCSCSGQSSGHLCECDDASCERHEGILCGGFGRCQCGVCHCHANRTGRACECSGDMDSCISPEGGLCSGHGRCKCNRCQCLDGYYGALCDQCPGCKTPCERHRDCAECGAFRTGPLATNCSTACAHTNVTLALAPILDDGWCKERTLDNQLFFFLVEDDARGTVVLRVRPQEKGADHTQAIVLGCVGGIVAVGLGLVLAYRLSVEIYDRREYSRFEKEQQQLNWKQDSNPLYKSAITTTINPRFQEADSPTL
Nature of the experiment: VCAM antagonistic activity (VCAM-1/α4β7 binding assay), RPMI-8866 cells binding to VCAM-1. Type of experiment: cell-based. The conditions noted are these: RPMI-8866 human B lymphoma cells binding to recombinant human VCAM-1; binding buffer with 4 mM MnCl2.

Structures are written as SMILES.

T1 sequence (P05556 21-798, one chain of several): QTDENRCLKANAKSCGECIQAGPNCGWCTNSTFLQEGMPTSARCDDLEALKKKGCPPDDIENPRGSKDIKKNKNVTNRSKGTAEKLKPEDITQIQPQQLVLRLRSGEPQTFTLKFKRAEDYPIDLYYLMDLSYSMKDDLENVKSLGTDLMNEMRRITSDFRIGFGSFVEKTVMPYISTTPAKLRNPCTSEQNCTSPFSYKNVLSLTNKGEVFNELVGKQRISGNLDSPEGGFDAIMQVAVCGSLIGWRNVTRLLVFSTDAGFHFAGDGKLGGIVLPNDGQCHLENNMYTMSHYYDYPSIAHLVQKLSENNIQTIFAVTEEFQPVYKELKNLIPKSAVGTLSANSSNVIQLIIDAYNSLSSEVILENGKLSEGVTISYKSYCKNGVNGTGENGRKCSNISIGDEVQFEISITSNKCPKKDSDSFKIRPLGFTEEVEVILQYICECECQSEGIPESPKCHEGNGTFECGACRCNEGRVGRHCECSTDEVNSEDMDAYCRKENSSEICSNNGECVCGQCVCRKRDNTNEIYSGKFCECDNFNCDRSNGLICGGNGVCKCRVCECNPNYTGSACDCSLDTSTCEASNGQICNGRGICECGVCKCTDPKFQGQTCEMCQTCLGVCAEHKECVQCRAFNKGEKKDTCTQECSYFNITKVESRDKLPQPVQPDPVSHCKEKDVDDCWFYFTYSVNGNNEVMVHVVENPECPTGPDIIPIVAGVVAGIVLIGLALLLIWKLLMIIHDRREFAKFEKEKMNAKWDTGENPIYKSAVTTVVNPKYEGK

For the compound `O=C(N[C@@H](Cc1ccc(-n2c(=O)c3cc([N+](=O)[O-])ccc3n(C3CCCC3)c2=O)cc1)C(=O)O)c1c(Cl)cccc1Cl` [Example 60], the half-maximal inhibitory concentration (IC50) in experiment [1] is 780 nM; in experiment [2], 36.1 nM.
For `CN1CCC(=O)N(c2ccc(C[C@H](NC(=O)c3c(Cl)cccc3Cl)C(=O)O)cc2)C1=O` [Example 135], the half-inhibitory concentration (IC50) was found to be 570 nM in experiment [1] and 12 nM in experiment [2].
Taken in the same sequence, the figures for `CCOc1nc2ccccc2c(=O)n1-c1ccc(C[C@H](NC(=O)c2c(Cl)cccc2Cl)C(=O)O)cc1` [Example 37] were 200 nM and 19 nM.
Regarding `O=C(N[C@@H](Cc1ccc(-n2c(=O)c3cc([N+](=O)[O-])ccc3n(CC3CCCCC3)c2=O)cc1)C(=O)O)c1c(Cl)cccc1Cl` [Example 62], the IC50 in experiment [1] is 1450 nM; in experiment [2] it was 45 nM.
Turning to `O=C(N[C@@H](Cc1ccc(-n2c(=O)[nH]c3ccc(F)cc3c2=O)cc1)C(=O)O)c1c(Cl)cccc1Cl` [Example 52], the results for the IC50 in experiment [1] and in experiment [2] were 1310 nM and 55.3 nM, respectively.
In the same order, the values of `COc1nc2ccccc2c(=O)n1-c1ccc(C[C@H](NC(=O)c2c(Cl)cccc2Cl)C(=O)O)cc1` [Example 36] are 490 nM and 6.6 nM.
In the same order, the values of `COc1cccc(OC)c1C(=O)N[C@@H](Cc1ccc(-n2c(=O)c3ccccc3n(C)c2=O)cc1)C(=O)O` [Example 9] are 440 nM and 94 nM.
